In PubChem BioAssay (NCI):
Several values for one entry are separate records, joined by “and”; a condition that tells them apart may be missing. Equal values may be shown once.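 All cell lines were grown in 96-well plates and treated with compound for 48 hours. Here, GI50 denotes the concentration required for 50% inhibition of growth. At the TGI there is no net growth.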

How the values were obtained:
Test in all cases: NCI anticancer screen, dose series, 48 h
[1] = test system: MOLT-4 leukemia
[2] = test system: OVCAR-4 ovarian
[3] = test system: HCT-15 colon
[4] = test system: UO-31 renal
[5] = test system: SR leukemia
[6] = test system: HOP-92 NSCLC
[7] = test system: BT-549 breast
[8] = test system: HCT-116 colon
[9] = test system: SK-MEL-5 melanoma
[10] = test system: DU-145 prostate

SMILES | GI50 [1] | TGI [1] | GI50 [2] | TGI [2] | GI50 [3] | TGI [3] | GI50 [4] | TGI [4] | GI50 [5] | TGI [5] | GI50 [6] | TGI [6] | GI50 [7] | TGI [7] | GI50 [8] | TGI [8] | GI50 [9] | TGI [9] | GI50 [10] | TGI [10]
NC(=NCCCCCCN=C(N)/N=C(\N)Nc1ccc(Cl)cc1)/N=C(\N)Nc1ccc(Cl)cc1 | 1.09 µM | 2.84 µM | 1.72 µM | 6.46 µM | 2 µM | 9.46 µM | 2.61 µM | 11 µM | 0.945 µM | 2.37 µM | 1.41 µM | 3.8 µM | 1.52 µM | 4.24 µM | 1.74 µM | 6.12 µM | 0.908 µM | 1.73 µM | 1.93 µM | 6.52 µM
O=C1/C(=C/c2ccc(Cl)cc2)CCC1CNc1ccc(Cl)cc1 (stereo not given) | – | 27.5 µM | – | 54.5 µM | – | 15.3 µM | – | 30.1 µM | – | 43.8 µM | – | 50.4 µM | – | 65.3 µM | – | 44.6 µM | – | 22 µM | – | 31.8 µM
CN(C)CCCN1c2ccccc2Sc2ccc(C(F)(F)F)cc21 | 1.86 µM | 4.19 µM and 39.2 µM | 1.97 µM | 5.53 µM and 28 µM | 1.92 µM | 3.73 µM and 31 µM and 31.1 µM | 1.48 µM | 5.38 µM and 28.3 µM and 28.9 µM | 2.14 µM | – | 1.04 µM | 2.99 µM and 26.3 µM | 1.77 µM | 3.32 µM and 26.5 µM | 1.64 µM | 3.13 µM and 28.5 µM and 27.2 µM | 1.57 µM | – | 1.79 µM | 3.22 µM and 31.2 µM
O=c1c(I)c[nH]cc1I | > 100 µM | > 100 µM | > 100 µM | > 100 µM | > 100 µM | > 100 µM | > 100 µM | > 100 µM | > 100 µM | > 100 µM | 67.1 µM | > 100 µM | > 100 µM | > 100 µM | > 100 µM | > 100 µM | > 100 µM | > 100 µM | > 100 µM | > 100 µM
COc1cc(-c2nc(-c3ccccc3)c(-c3ccccc3)[nH]2)cc(OC)c1O | 17.1 µM | 64.9 µM | 17.6 µM | 56.8 µM | 13.3 µM | 41.4 µM | 13.2 µM | 31 µM | 13.6 µM | 51.7 µM | 17.6 µM | 35.4 µM | 19.5 µM | 39.5 µM | 14.4 µM | 27.7 µM | 14.2 µM | 27.6 µM | 17 µM | 32.1 µM
O=c1[nH]c2cc(Cl)ccc2nc1/C(=N\Nc1ccccc1)C(O)c1ccc2c(c1)OCO2 (stereo not given) | – | > 100 µM | – | > 100 µM | – | > 100 µM | – | > 100 µM | – | > 100 µM | – | > 100 µM | – | > 100 µM | – | > 100 µM | – | > 100 µM | – | > 100 µM
Cc1cc(NC(=O)NCc2ccc(N3C(N)=NC(N)=NC3(C)C)cc2)ccc1S(=O)(=O)F | 2.01 µM | > 100 µM | 9.31 µM | > 100 µM | 11.2 µM | > 100 µM | > 100 µM | > 100 µM | 0.502 µM | > 43.5 µM | 23.2 µM | > 100 µM | 4.97 µM | > 67.6 µM | 0.429 µM | > 100 µM | 1.11 µM | 58.7 µM | 1.35 µM | > 100 µM
CCCCNc1ncnc2c1cnn2-c1ccccc1 | 3.75 µM | > 100 µM | 18.3 µM | > 100 µM | 0.947 µM | > 50.1 µM | 7.44 µM | 71.2 µM | 0.444 µM | > 100 µM | 3.21 µM | 55.6 µM | 6.71 µM | > 69 µM | 1.32 µM | > 100 µM | 1.19 µM | 11.1 µM | 3.47 µM | 32.1 µM
O=S(=O)(c1ccccc1)N1CCCC(c2ccccc2)CC1 (stereo not given) | – | 69.1 µM | – | > 100 µM | – | > 100 µM | – | > 100 µM | – | > 100 µM | – | > 100 µM | – | > 100 µM | – | > 100 µM | – | 28.9 µM | – | > 100 µM
CC(C)(C)N/N=C(/Cc1nc2c3c(ccc2[nH]c1=O)C(=O)c1ccccc1C3=O)C(=O)NC1=C(Cl)C(=O)c2ccccc2C1=O | – | > 100 µM | – | 61.6 µM | – | 20.3 µM | – | > 100 µM | – | > 100 µM | – | > 100 µM | – | > 100 µM | – | > 100 µM | – | 27 µM | – | > 100 µM
COc1cc(C(=O)c2cnc(-c3c[nH]c4cccc(C)c34)[nH]2)cc(OC)c1OC | 0.0378 µM | > 100 µM | 0.529 µM | > 100 µM | 0.00659 µM | > 100 µM | 0.00965 µM | 14.7 µM | – | > 100 µM | – | 18.3 µM | 0.0204 µM | – | 0.00346 µM | 11.1 µM | 0.00365 µM | 0.0221 µM and 0.0366 µM | 0.00756 µM | > 100 µM
CCSC[C@@H]1C[C@](O)(c2ccccc2)[C@@H](c2ccccc2)O1 | 7.18 µM | > 23.7 µM | 66.9 µM | > 100 µM | 82.1 µM | > 100 µM | 51.2 µM | > 100 µM | < 0.136 µM | 9.3 µM | 65.5 µM | > 100 µM | 89.1 µM | > 100 µM | 58.6 µM | > 100 µM | 44.4 µM | > 100 µM | > 100 µM | > 100 µM
CCn1c(-c2nonc2N)nc2ccccc21 | > 25 µM | > 25 µM | > 25 µM | > 25 µM | > 25 µM | > 25 µM | > 25 µM | > 25 µM | > 25 µM | > 25 µM | 17 µM | > 25 µM | > 25 µM | > 25 µM | > 25 µM | > 25 µM | > 25 µM | > 25 µM | > 25 µM | > 25 µM
